Tests used:
A549 = test: MTT test, cytotoxic effect; format: cell-based; conditions: Homo sapiens, 24 h treatment, 0.1 to 100 µM, concentration that causes 50% cell death
Description: (§1) At the first stage of biological testing, we studied the effect of the synthesized compounds on the survival of cells of both tumoral and normal origin. […] In our work, the cytotoxic profile of the synthesized molecules was assessed using the MTT test, based on the ability of a colorless tetrazolium salt (3-[4,5-dimethylthiazol-2-yl]-2,5-diphenyltetrazolium bromide, MTT) to be reduced to colored formazan in the presence of the mitochondrial enzymes of living cells. For this purpose, a number of cell lines of tumoral origin (SH-SY5Y, A549, MCF-7 and SW-480), as well as normal origin (Hek-293), were used.
(§2) For the experiments, we used tumor cell cultures SH-SY5Y, human neuroblast-like cells, A549, human lung adenocarcinoma, MCF-7, human mammary adenocarcinoma, SW-480 and human colorectal adenocarcinoma, as well as cells of normal origin obtained from human embryonic kidneys, Hek-293.
(§3) All cells were cultured in the Dulbecco Modified Eagle’s Medium (DMEM) with a high glucose content, 10% fetal bovine serum and 1% penicillin-streptomycin as an antibiotic, in a moist incubator with 5% CO2 at 37°C.
(§4) To measure cellular metabolic activity, a colorimetric analysis was performed using the MTT reagent (3-(4,5–dimethylthiazol-2-yl)-2,5-diphenyltetrazolium bromide), which is an inhibitor of viable cells [73, 74].
(§5) • Briefly, cells in the logarithmic growth phase were digested and resuspended to adjust the cell density. The cells were then seeded in 96-well plates at a density of 10,000 cells per well. After 24 h of the incubation of the cells under the standard conditions described above (for the purpose of cell adhesion), the cells were treated with the synthesized compounds at different concentrations (0.1 to 100 µM) or a vehicle alone as a control (1% DMSO) for 24 h. After the incubation time of the cells with synthesized compounds, 5 mg/mL of MTT was added to the cells and incubated for 2 h at 37 °C. Next, the supernatant was discarded; after that, the formazan crystals were dissolved in a DMSO and the absorbance of each well was measured at 570 nm using a multifunctional microplate reader, Cytation3 (Biotech Tools Inc., Winooski, USA).

MCF-7 = test: MTT test, cytotoxic effect; format: cell-based; conditions: Homo sapiens, MCF7, 24 h treatment, 0.1 to 100 µM, concentration that causes 50% cell death
Description: as §1, §2, §3, §4, §5

SW-480 = test: MTT test, cytotoxic effect; format: cell-based; conditions: Homo sapiens, SW480, 24 h treatment, 0.1 to 100 µM, concentration that causes 50% cell death
Description: as §1, §2, §3, §4, §5

[1] = MTT test, cytotoxic effect on cells of normal origin; format: cell-based, human; conditions: human, Hek-293 cells (normal origin), 24 h treatment, 0.1 to 100 µM, normal cells, concentration that causes 50% cell death
Description: as §1, §2, §3, §4, §5

SH-SY5Y = test: cells; conditions: Homo sapiens, 24 h, read-out: IC50 of the cytotoxic effect, SH-SY5Y
Description: as §1, §2, §3, §4, §5

[2] = system: Fe(II)-induced lipid peroxidation (LPO) of rat brain homogenate; test: Fe(II)-induced lipid peroxidation, modified TBARS test; format: biochemical; conditions: Fe(II) 500 μM; rat brain homogenate 2 mg/mL; 1 to 300 μM; read-out: IC50 of the lipid peroxidation inhibitory effect
Description: In our work, the antioxidant status of the compounds was determined by their ability to influence the process of Fe(II)-induced lipid peroxidation (LPO) of rat brain homogenate (2 mg/mL). The effect of the substances on LPO was studied using a modified version of the TBA test in a plate format. This test is based on the reaction of 2-thiobarbituric acid with intermediate LPO products, resulting in the formation of a colored trimethine complex, the main role in the formation of which belongs to malondialdehyde. […] This was expressed in a decrease in the level of malondialdehyde in the system by 70, 79 and 71%, respectively, tending to the values of the well-known antioxidant Trolox. Additionally, the IC50 values of the lipid peroxidation inhibitory effect were calculated for these molecules, the values of which are presented in Figure 2B.
To obtain rat brain homogenate, an animal previously anesthetized in a CO2 chamber was decapitated using a guillotine. The brain was homogenized in a buffer containing KCl (120 mM) and HEPES (20 mM), pH = 7.4 at 4 ° C and centrifuged at 1500 g to obtain a supernatant.
The intensity of the lipid peroxidation of the rat brain homogenate was evaluated using a modified TBARS test. […] In the wells of the negative control, the Fe(II) was replaced with water; in samples with a positive control, a solvent was introduced instead of the studied compounds.
At the end of incubation, a TBA reagent ([…] thiobartituric and 1% trichloroacetic acids dissolved in 0.25 N HCl) was added to each well and heated at 90 °C for 90 min.

Hek-293 = test: MTT test, cytotoxic effect on cells of normal origin; format: cell-based, human; conditions: Hek-293
Description: as §1, §2, §3, §4, §5

SMILES | IC50 (A549) [µM] | IC50 (MCF-7) [µM] | IC50 (SW-480) [µM] | IC50 at 24 h [1] [µM] | melting point [°C] | IC50 (SH-SY5Y) [µM] | IC50 [2] [µM] | cytotoxic effect on cell line of normal origin (Hek-293)
CCOC(=O)c1ccc(-n2nnc3ccccc32)c([N+](=O)[O-])c1 [3d, Ethyl 4-(1H-benzotriazol-1-yl)-3-nitrobenzoate] | ≥ 100 | ≥ 100 | ≥ 100 | ≥ 100 | 115 to 119 | ≥ 100 |  | 
Nc1cc(Cl)ccc1-n1cnc2ccccc21 [4b, 2-(1H-benzimidazol-1-yl)-5-chloroaniline] | ≥ 100 | ≥ 100 | ≥ 100 | ≥ 100 | 192 to 195 | ≥ 100 |  | 
FC(F)(F)c1ccc2c(c1)ncn2-c1cc(Cl)ccc1-n1nnc2ccccc21 [7c, 1-{4-Chloro-2-[5-(trifluoromethyl)-1H-benzimidazol-1-yl]phenyl}-1H-benzotriazole] | ≥ 100 | 45.12 ± 0.22 | ≥ 100 | 36.27 ± 0.14 | 136 to 141 | ≥ 100 |  | 
FC(F)(F)c1ccc(-n2nnc3ccccc32)c(-n2cnc3cc(C(F)(F)F)ccc32)c1 [7a, 1-{4-(trifluoromethyl)-2-[5-(trifluoromethyl)-1H-benzimidazol-1-yl]phenyl}-1H-benzotriazole] | ≥ 100 | ≥ 100 | ≥ 100 | ≥ 100 | 124 to 128 | ≥ 100 |  | 
CCOC(=O)c1ccc(-n2nnc3ccccc32)c(N)c1 [4d, Ethyl 3-amino-4-(1H-benzotriazol-1-yl)benzoate] | ≥ 100 | ≥ 100 | ≥ 100 | ≥ 100 | 132 to 136 | ≥ 100 |  | 
O=[N+]([O-])c1cc(Cl)ccc1-n1cnc2ccccc21 [3b, 1-(4-Chloro-2-nitrophenyl)-1H-benzimidazole] | ≥ 100 | ≥ 100 | ≥ 100 | ≥ 100 | 102 to 105 | ≥ 100 |  | 
Cc1c(C)c2c(c(C)c1O)CCC(C)(C(=O)O)O2 (stereo not shown) [Trolox, reference compound] |  |  |  |  |  |  | 32.45 ± 0.24 | 
ONc1cc(C(F)(F)F)ccc1-n1nnc2ccccc21 [8b, N-(2-(1H-benzotriazol-1-yl)-5-(trifluoromethyl)phenyl)hydroxylamine] |  |  |  |  | 151 to 154 |  |  | 
Nc1cc(C(F)(F)F)ccc1-n1cnc2ccccc21 [4a, 2-(1H-benzimidazol-1-yl)-5-(trifluoromethyl)aniline] | 67.17 ± 0.12 | 65.26 ± 0.07 | 84.03 ± 0.38 | 82.89 ± 0.46 | 209 to 210 | 66.75 ± 0.41 |  | 
Nc1cc(C(F)(F)F)ccc1-n1nnc2ccccc21 [4c, 2-(1H-benzotriazol-1-yl)-5-(trifluoromethyl)aniline] | 65.38 ± 0.17 | 75.2 ± 1.43 | ≥ 100 | ≥ 100 | 136 to 139 | 39.59 ± 0.05 |  | without affecting the survival
O=[N+]([O-])c1cc(C(F)(F)F)ccc1-n1nnc2ccccc21 [3c, 1-[2-Nitro-4-(trifluoromethyl)phenyl]-1H-benzotriazole] | ≥ 100 | ≥ 100 | ≥ 100 | ≥ 100 | 133 to 136 | ≥ 100 |  | 
CCOC(=O)c1ccc(Nc2cc(C(F)(F)F)ccc2-n2nnc3ccccc32)c([N+](=O)[O-])c1 [5c, Ethyl 4-[2-(1H-benzotriazol-1-yl)-5-(trifluoromethyl)anilino]-3-nitrobenzoate] | ≥ 100 | ≥ 100 | ≥ 100 | ≥ 100 | 192 to 196 | ≥ 100 |  | 
CCOC(=O)c1ccc2c(c1)ncn2-c1cc(C(F)(F)F)ccc1-n1nnc2ccccc21 [7b, Ethyl 1-[2-(1H-benzotriazol-1-yl)-5-(trifluoromethyl)phenyl]-1H-benzimidazole-5-carboxylate] | ≥ 100 | ≥ 100 | ≥ 100 | ≥ 100 | 100 to 104 | ≥ 100 |  | 
Nc1cc(Cl)ccc1-n1nnc2ccccc21 [4e, 2-(1H-benzotriazol-1-yl)-5-chloroaniline] | 91.87 ± 0.02 | 82.48 ± 0.32 | ≥ 100 | 87.4 ± 1.42 | 154 to 156 | 99.1 ± 1.47 |  | 
O=[N+]([O-])c1cc(Cl)ccc1-n1nnc2ccccc21 [3e, 1-(4-Chloro-2-nitrophenyl)-1H-benzotriazole] | ≥ 100 | ≥ 100 | ≥ 100 | ≥ 100 | 134 to 137 | ≥ 100 |  | 
ONc1cc(C(F)(F)F)ccc1-n1cnc2ccccc21 [8a, N-(2-(1H-benzimidazol-1-yl)-5-(trifluoromethyl)phenyl)hydroxylamine] |  |  |  |  | 153 to 156 |  |  | 
O=[N+]([O-])c1cc(C(F)(F)F)ccc1Nc1cc(Cl)ccc1-n1nnc2ccccc21 [5d, N-[2-(1H-benzotriazol-1-yl)-5-chlorophenyl]-2-nitro-4-(trifluoromethyl)aniline] | ≥ 100 | ≥ 100 | ≥ 100 | ≥ 100 | 178 to 181 | ≥ 100 |  | 
O=[N+]([O-])c1cc(C(F)(F)F)ccc1Nc1cc(C(F)(F)F)ccc1-n1cnc2ccccc21 [5a, N-[2-(1H-benzimidazol-1-yl)-5-(trifluoromethyl)phenyl]-2-nitro-4-(trifluoromethyl)aniline] | ≥ 100 | ≥ 100 | ≥ 100 | ≥ 100 | 180 to 183 | ≥ 100 |  | 
O=[N+]([O-])c1cc(C(F)(F)F)ccc1-n1cnc2ccccc21 [3a, 1-(2-Nitro-4-(trifluoromethyl)phenyl)-1H-benzimidazole] | ≥ 100 | 92.4 ± 1.4 | ≥ 100 | 77.3 ± 2.12 | 130 to 132 | 62.2 ± 0.11 |  | 
O=[N+]([O-])c1cc(C(F)(F)F)ccc1Nc1cc(C(F)(F)F)ccc1-n1nnc2ccccc21 [5b, N-[2-(1H-benzotriazol-1-yl)-5-(trifluoromethyl)phenyl]-2-nitro-4-(trifluoromethyl)aniline] | ≥ 100 | ≥ 100 | ≥ 100 | ≥ 100 | 203 to 204 | ≥ 100 |  | 

— article PMC11596563, “N-Aryl Benzimidazole and Benzotriazole Derivatives and Their Hybrids as Cytotoxic Agents: Design, Synthesis and Structure–Activity Relationship Studies” (Molecules, 2024)
